A value given as a limit tells only on which side of the number the result lay.

One data set has as its target KRAS G12C-BRAF complex (Homo sapiens (Human), UniProt P01116+P62937, G12C). Nature of the data set: KRAS G12C-BRAF NanoBit assay. The format is cell-based. The note with it: HEK293 cells, 3 hours of incubation. Summed up: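 Stable HEK293 pool co-expressing SmBit-KRAS G12C and BRAF RBD-LgBit; 10,000 cells/well incubated 3 h with compound, 16-point 3-fold dilution from 30 μM final. Live-cell Nano-Glo substrate added, luminescence read at 20 min; disruption seen as luminescence decrease vs DMSO.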

The nature of data set [1]: GSH reaction rates (inherent GSH reactivity). More on the design: half-life: dose or concentration left out as unconfirmed. The data set is classed as in vitro ADME. The note with it: for half-life: buffer, pH 7.4. On the procedure:
For inherent GSH reactivity determination, compounds […] were incubated at 37° C. with and without 5 mM GSH for 0, 0.5, 1, 2, 4 and 6 h in 100 mM potassium phosphate buffer at pH 7.4. At the end of the designated time points, samples were quenched with acetonitrile containing 10 mM N-ethylmaleimide and an internal standard. Quenched samples were centrifuged, and supernatants were analyzed by LC-MS/MS for compound quantification.

The test system of data set [2] is phosphorylation of ERK, KRAS G12D in AGS cells. Nature of the data set: pERK inhibition assay, KRAS G12D. The data set is classed as cell-based, human. The note with it: Homo sapiens, 4 hours. The method, boiled down: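 Cells in RPMI-1640 with 10% FBS were plated overnight (NCJ-H358 30,000, AGS 20,000, SW620 30,000 cells/well), then exposed to compounds in 0.5% DMSO for 4 h. Fixed, methanol-permeabilized cells were probed for pERK by HRP-based in-cell ELISA with TMB, OD450; IC50 from 4-parameter sigmoidal fit.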

Data set [3] concerns the target KRAS G12V binding to BRAF (Homo sapiens (Human), UniProt P01116+P62937, G12V). Put plainly: KRAS-BRAF with CYPA (500 nM) interaction assay (TR-FRET), G12V. The data set is classed as biochemical. The method, boiled down:
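A TR-FRET assay measured how compound, in the presence of CYPA, disrupts binding of GMPPNP-loaded 6His-KRAS G12V to BRAF. The buffer contained 25 mM HEPES PH=7.4, 0.002% Tween20, 0.1% BSA, 100 mM NaCl, 5 mM MgCl2 and 10 μM GMPPNP. Compounds ran as a 16-point 3-fold dilution series from 10 μM for 3 hours.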

Data set [4] concerns cryopreserved suspension hepatocytes from human. Nature of the data set: Human hepatocyte stability assay. The note with it: for Clearance Category: human hepatocytes; for CL_hep (Human): human hepatocytes 1×10^6 cells/mL, 37° C. The format is in vitro ADME. On the procedure:
The hepatocyte stability assay measures the rate of disappearance of a compound from incubations with cryopreserved suspension hepatocytes from human. Positive controls, including Midazolam, Raloxifene and Dextromethorphan, are included in every experiment. Incubations consist of […] tested compound and suspension of human hepatocytes (1×10^6 cells/mL) in supplemented Williams' E Medium with 10% FBS and 0.5% Penicillin-streptomycin. The hepatocyte suspension was incubated with intermittent shaking 900 rpm at 37° C., in a 5% CO2 incubator. The reaction was stopped by adding methanol containing internal standard (2 μM Tolbutamide) at 2, 10, 20, 40, 60 and 120 minutes after compound addition, depletion of the parent compound was monitored by LC-MS/MS analysis.

Chain of KRAS G12V binding to BRAF (P01116-2 other isoform, or with tags, fused parts or gaps G12V): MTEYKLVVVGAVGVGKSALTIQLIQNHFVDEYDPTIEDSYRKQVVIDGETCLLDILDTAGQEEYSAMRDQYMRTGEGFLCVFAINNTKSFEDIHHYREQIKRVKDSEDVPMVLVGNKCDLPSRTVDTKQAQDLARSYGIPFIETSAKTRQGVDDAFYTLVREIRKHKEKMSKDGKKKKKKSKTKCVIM
Chain of KRAS G12V binding to BRAF (P62937 whole entry): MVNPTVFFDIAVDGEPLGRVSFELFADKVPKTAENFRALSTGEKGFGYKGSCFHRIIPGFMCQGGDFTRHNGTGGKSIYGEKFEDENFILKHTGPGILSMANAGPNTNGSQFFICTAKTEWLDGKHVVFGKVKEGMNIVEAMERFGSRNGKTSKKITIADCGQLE
Chain of KRAS G12C-BRAF complex (P01116-2 other isoform, or with tags, fused parts or gaps G12C): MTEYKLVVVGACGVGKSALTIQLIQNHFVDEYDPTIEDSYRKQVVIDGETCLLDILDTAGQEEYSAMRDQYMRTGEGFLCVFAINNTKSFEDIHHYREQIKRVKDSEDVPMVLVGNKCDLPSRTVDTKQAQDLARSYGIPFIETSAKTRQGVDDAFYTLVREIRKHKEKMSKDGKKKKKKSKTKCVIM
Chain of KRAS G12C-BRAF complex (P62937 whole entry): as the sequence (P62937 whole entry) above

Take `CC(C)[C@@H](C(=O)N[C@H]1Cc2cc(O)cc(c2)-c2ccc3c(C(C)(C)C#N)cn(c3c2)CC(C)(C)COC(=O)[C@@H]2CCCN(N2)C1=O)N1CCCC2(CCN(C(=O)CCl)C2)C1=O` (some centres unmarked) [RM351, reference compound]: the IC50 (usually the concentration at which inhibition is half-maximal) is 1780 nM at KRAS G12C-BRAF complex, above 10000 nM in data set [2] and above 10000 nM in data set [3]. The “conjugation with GSH” value in data set [1] is “formed conjugation with GSH”. Moreover, in data set [1], the half-life (usually the time needed for the level to fall by half in the phase considered) is 4.3 h.

On to `CCn1c(-c2cc(N3CCN(CC(F)(F)F)CC3)cnc2[C@H](C)OC)c2c3cc(c(F)cc31)-c1csc(n1)C[C@H](NC(=O)[C@H](C(C)C)N1CCC3(CN(C(=O)[C@H](F)Cl)C3)C1=O)C(=O)N1CCC[C@H](N1)C(=O)OCC(C)(C)C2` (atropisomer, axis not shown; (M)) [Example 37, (2S)-2-[2-[(2R)-2-chloro-2-fluoro-acetyl]-5-oxo-2,6-diazaspiro[3.4]octan-6-yl]-N-[(7S,13S)-21-ethyl-24-fluoro-(20M)-20-[2-[(1S)-1-methoxyethyl]-5-[4-(2,2,2-trifluoroethyl)piperazin-1-yl]-3-pyridyl]-17,17-dimethyl-8,14-dioxo-15-oxa-4-thia-9,21,27,28-tetrazapentacyclo[17.5.2.1^2,5.1^9,13.0^22,26]octacosa-1(25),2,5(28),19,22(26),23-hexaen-7-yl]-3-methyl-butanamide], for which, in data set [4], the “Clearance Category” value is on record as “low (CL_hep (mL/min/kg)<6.96 is low clearance)” and the “CL_hep (Human)” value turned out to be 2.4 mL/min/kg. Moreover, in data set [1] (5 mM GSH, 37° C., 100 mM potassium phosphate buffer pH 7.4, up to 6 h), the “T1/2(hour) in GSH” value is “stable (If % depletion after 6 hour incubation is less than 20%, compounds were reported as stable)”. For the same compound, the “Remaining at 6 hr in GSH (%)” value in data set [1] (5 mM GSH, 37° C., pH 7.4, 6 hr) was determined as 100%. Moreover, in data set [3], the concentration for half-maximal inhibition (IC50) was determined as 1360 nM.

Turning to `CCn1c(-c2cc(N3CCOCC3)cnc2[C@H](C)OC)c2c3cc(c(F)cc31)-c1csc(n1)C[C@H](NC(=O)[C@H](C(C)C)N1CC[C@]3(CCN(C(=O)[C@H](F)Cl)C3)C1=O)C(=O)N1CCC[C@H](N1)C(=O)OCC(C)(C)C2` (atropisomer, axis not shown; (M)) [Example 51, (2S)-2-[(5S)-7-[(2R)-2-chloro-2-fluoro-acetyl]-1-oxo-2,7-diazaspiro[4.4]nonan-2-yl]-N-[(7S,13S)-21-ethyl-24-fluoro-(20M)-20-[2-[(1S)-1-methoxyethyl]-5-morpholino-3-pyridyl]-17,17-dimethyl-8,14-dioxo-15-oxa-4-thia-9,21,27,28-tetrazapentacyclo[17.5.2.1^2,5.1^9,13.0^22,26]octacosa-1(25),2,5(28),19,22(26),23-hexaen-7-yl]-3-methyl-butanamide], the figures for the IC50 (at KRAS G12C-BRAF complex; in data set [2]; in data set [3]) were 34 nM, 62 nM and 6440 nM, respectively.

With `CC(C)[C@@H](C(=O)N[C@H]1Cc2cc(O)cc(c2)-c2ccc3c(C(C)(C)C#N)cn(c3c2)CC(C)(C)COC(=O)[C@@H]2CCCN(N2)C1=O)N1CCC2(CN(C(=O)CCl)C2)C1=O` [RM44, reference compound], 11700 nM corresponded to half-maximal inhibition at KRAS G12C-BRAF complex (IC50). Also, in data set [4], the “Clearance Category” value is reported as “medium (16.24>CL_hep (mL/min/kg)>6.96 is medium clearance)” and the “CL_hep (Human)” value was 14.7 mL/min/kg. Further, in data set [1], the “conjugation with GSH” value is reported as “formed conjugation with GSH” and the half-life is 8.9 h. Besides, the IC50 in data set [2] is above 10000 nM. The half-maximal inhibitory concentration (IC50) in data set [3] is above 10000 nM.

As to `CCn1c(-c2cc(N3CCOCC3)cnc2[C@H](C)OC)c2c3cc(c(F)cc31)-c1csc(n1)C[C@H](NC(=O)[C@H](C(C)C)N1CC[C@@]3(CCN(C(=O)[C@H](F)Cl)C3)C1=O)C(=O)N1CCC[C@H](N1)C(=O)OCC(C)(C)C2` (atropisomer, axis not shown; (M)) [Example 53, (2S)-2-[(5R)-7-[(2R)-2-chloro-2-fluoro-acetyl]-1-oxo-2,7-diazaspiro[4.4]nonan-2-yl]-N-[(7S,13S)-21-ethyl-24-fluoro-(20M)-20-[2-[(1S)-1-methoxyethyl]-5-morpholino-3-pyridyl]-17,17-dimethyl-8,14-dioxo-15-oxa-4-thia-9,21,27,28-tetrazapentacyclo[17.5.2.1^2,5.1^9,13.0^22,26]octacosa-1(25),2,5(28),19,22(26),23-hexaen-7-yl]-3-methyl-butanamide], the IC50 is 17 nM against KRAS G12C-BRAF complex, 46 nM in data set [2] and above 10000 nM in data set [3].

Consider `CCn1c(-c2cc(N3CCOCC3)cnc2[C@H](C)OC)c2c3cc(c(F)cc31)-c1csc(n1)C[C@H](NC(=O)[C@H](C(C)C)N1CCC3(CN(C(=O)[C@H](F)Cl)C3)C1=O)C(=O)N1CCC[C@H](N1)C(=O)OCC(C)(C)C2` (atropisomer, axis not shown; (M)) [Example 52, (2S)-2-[2-[(2R)-2-chloro-2-fluoro-acetyl]-5-oxo-2,6-diazaspiro[3.4]octan-6-yl]-N-[(7S,13S)-21-ethyl-24-fluoro-(20M)-20-[2-[(1S)-1-methoxyethyl]-5-morpholino-3-pyridyl]-17,17-dimethyl-8,14-dioxo-15-oxa-4-thia-9,21,27,28-tetrazapentacyclo[17.5.2.1^2,5.1^9,13.0^22,26]octacosa-1(25),2,5(28),19,22(26),23-hexaen-7-yl]-3-methyl-butanamide], for which the IC50 is 70 nM at KRAS G12C-BRAF complex, 103 nM in data set [2] and above 10000 nM in data set [3].

Source of the values: patent US20250206761A1, “HALOINDOLE MACROCYCLIC COMPOUNDS FOR THE TREATMENT OF CANCER” (Hoffmann-La Roche Inc., priority 2022, published 2025).
